The record followed here is ChEMBL document CHEMBL4619722, “Alanine scan-guided synthesis and biological evaluation of analogues of culicinin D, a potent anticancer peptaibol” (Bioorg Med Chem Lett, 2020).

SMILES strings stand for the structures. Numbered stars: 1 amine (or outer) side, 2 acyl side, 3 side chain; on linkers, the order of the positions; unused ones are H or OH. Square brackets hold non-standard residues; d marks the D form. Peptide text beside a SMILES is read from it. * marks the point of attachment. ξ: configuration not given here. X1 = CCC(=O)C[C@H](O)C[C@@H](C)C[C@H](N[*:1])C(=O)[*:2]; Nva(5-pentanoyl) = CCCCC(=O)CCC[C@H](N)C(=O)O; NH((S)CH(Me)CH2NHC2H4OH) = C[C@@H](CNCCO)N*; Gly(octyl) = CCCCCCCC[C@H](N)C(=O)O; X2 = O=C([C@H](CCCCO)N[*:1])[*:2]; X3 = C[C@H](NC[C@H](C)N*)C(=O)O; Nle = CCCC[C@H](N)C(=O)O; Nva = CCC[C@H](N)C(=O)O; Aib = CC(C)(N)C(=O)O; Butyryl = CCCC(=O)*; ξP = O=C(O)C1CCCN1; βAla = NCCC(=O)O

Common to all, as to type: functional, cell-based
One assay deals with T47D. Briefly: Antiproliferative activity against human T47D cells.
The subject of a further assay is NCI-H460. Briefly: Antiproliferative activity against human NCI-H460 cells.
In another assay the test system is MDA-MB-468. In words: Antiproliferative activity against human MDA-MB-468 cells.
In the next assay the test system is SK-BR-3. In words: Antiproliferative activity against human SKBR3 cells.

Broadly, the IC50 is the concentration that gives 50% inhibition. Read a high IC50 as a need for much substance.

Take `CCCC(=O)N1CCC[C@H]1C(=O)N[C@@H](C[C@H](C)C[C@@H](O)CC(=O)CC)C(=O)NC(C)(C)C(=O)NC(C)(C)C(=O)N[C@H](C(=O)N[C@@H](CC(C)C)C(=O)NC(C)(C)C(=O)N[C@@H](CC(C)C)C(=O)NCCC(=O)N[C@@H](C)CNCCO)[C@@H](C)CC` (Butyryl-P[X1][Aib][Aib]IL[Aib]L[βAla]-{NH((S)CH(Me)CH2NHC2H4OH)}): the IC50 is 251 nM in the assay with T47D, over 500 nM with NCI-H460, 142 nM with MDA-MB-468 and over 1000 nM in the assay on SK-BR-3.

In the case of `CCCC(=O)N1CCC[C@H]1C(=O)N[C@@H](C[C@H](C)C[C@@H](O)CC(=O)CC)C(=O)NC(C)(C)C(=O)NC(C)(C)C(=O)N[C@@H](CC(C)C)C(=O)N[C@@H](CC(C)C)C(=O)NC(C)(C)C(=O)N[C@@H](CC(C)C)C(=O)NCCC(=O)N[C@@H](C)CNCCO` (Butyryl-P[X1][Aib][Aib]LL[Aib]L[βAla]-{NH((S)CH(Me)CH2NHC2H4OH)}), the IC50 with T47D is 130 nM; with NCI-H460, 496 nM; in the assay on MDA-MB-468, 90 nM; in the assay on SK-BR-3, over 1000 nM.

`CCCCCCCC[C@H](NC(=O)C(C)(C)NC(=O)C(C)(C)NC(=O)[C@H](C[C@H](C)C[C@@H](O)CC(=O)CC)NC(=O)[C@@H]1CCCN1C(=O)CCC)C(=O)N[C@@H](CC(C)C)C(=O)NC(C)(C)C(=O)N[C@@H](CC(C)C)C(=O)NCCC(=O)N[C@@H](C)CNCCO` (Butyryl-P[X1][Aib][Aib][Gly(octyl)]L[Aib]L[βAla]-{NH((S)CH(Me)CH2NHC2H4OH)}): the IC50 in the assay with T47D stood at 3 nM; in the assay with NCI-H460, 8 nM; in the assay with MDA-MB-468 it was 4 nM; in the assay on SK-BR-3 it was 25 nM.

Turning to `CCCC[C@H](NC(=O)C(C)(C)NC(=O)C(C)(C)NC(=O)[C@H](C[C@H](C)C[C@@H](O)CC(=O)CC)NC(=O)[C@@H]1CCCN1C(=O)CCC)C(=O)N[C@@H](CC(C)C)C(=O)NC(C)(C)C(=O)N[C@@H](CC(C)C)C(=O)NCCC(=O)N[C@@H](C)CNCCO` (Butyryl-P[X1][Aib][Aib][Nle]L[Aib]L[βAla]-{NH((S)CH(Me)CH2NHC2H4OH)}), the IC50 in the assay with T47D is 124 nM; in the assay on NCI-H460, over 500 nM; in the assay with MDA-MB-468, 90 nM; in the assay on SK-BR-3, over 1000 nM.

Turning to `CCCC(=O)N1CCC[C@H]1C(=O)N[C@@H](C[C@H](C)C[C@@H](O)CC(=O)CC)C(=O)NC(C)(C)C(=O)NC(C)(C)C(=O)N[C@@H](CCC)C(=O)N[C@@H](CC(C)C)C(=O)NC(C)(C)C(=O)N[C@@H](CC(C)C)C(=O)NCCC(=O)N[C@@H](C)CNCCO` (Butyryl-P[X1][Aib][Aib][Nva]L[Aib]L[βAla]-{NH((S)CH(Me)CH2NHC2H4OH)}), the concentration for half-maximal inhibition (IC50) in the assay on T47D was 420 nM; with NCI-H460 it was over 1000 nM; with MDA-MB-468, 274 nM; in the assay with SK-BR-3 it was over 1000 nM.

For `CCCCCCCC[C@H](NC(=O)C(C)(C)NC(=O)C(C)(C)NC(=O)[C@H](CCCCO)NC(=O)[C@@H]1CCCN1C(=O)CCC)C(=O)N[C@@H](CC(C)C)C(=O)NC(C)(C)C(=O)N[C@@H](CC(C)C)C(=O)NCCC(=O)N[C@@H](C)CNCCO` (Butyryl-P[X2][Aib][Aib][Gly(octyl)]L[Aib]L[βAla]-{NH((S)CH(Me)CH2NHC2H4OH)}), the IC50 in the assay on T47D is 49 nM; in the assay on NCI-H460, 45 nM; in the assay with MDA-MB-468, 39 nM; with SK-BR-3 it was 270 nM.

Take `CCCCCCCC[C@H](NC(=O)C(C)(C)NC(=O)C(C)(C)NC(=O)[C@H](C)NC(=O)C1CCCN1C(=O)CCC)C(=O)N[C@@H](CC(C)C)C(=O)NC(C)(C)C(=O)N[C@@H](CC(C)C)C(=O)NCCC(=O)N[C@@H](C)CNCCO` (stereo partly drawn) (Butyryl-[ξP]A[Aib][Aib][Gly(octyl)]L[Aib]L[βAla]-{NH((S)CH(Me)CH2NHC2H4OH)}): the IC50 stood at 61 nM with T47D, 71 nM with NCI-H460, 68 nM with MDA-MB-468 and 343 nM in the assay on SK-BR-3.

In the case of `CCCCCCCC[C@H](NC(=O)C(C)(C)NC(=O)[C@H](C)NC(=O)[C@H](CCCC(=O)CCCC)NC(=O)C1CCCN1C(=O)CCC)C(=O)N[C@@H](CC(C)C)C(=O)NC(C)(C)C(=O)N[C@@H](CC(C)C)C(=O)NCCC(=O)N[C@@H](C)CNCCO` (stereo partly drawn) (Butyryl-[ξP][Nva(5-pentanoyl)]A[Aib][Gly(octyl)]L[Aib]L[βAla]-{NH((S)CH(Me)CH2NHC2H4OH)}), the IC50 amounted to 31 nM in the assay on T47D, 44 nM in the assay on NCI-H460, 42 nM in the assay on MDA-MB-468 and 75 nM in the assay with SK-BR-3.

For `CCCCCCCC[C@H](NC(=O)[C@H](C)NC(=O)C(C)(C)NC(=O)[C@H](CCCC(=O)CCCC)NC(=O)C1CCCN1C(=O)CCC)C(=O)N[C@@H](CC(C)C)C(=O)NC(C)(C)C(=O)N[C@@H](CC(C)C)C(=O)NCCC(=O)N[C@@H](C)CNCCO` (stereo partly drawn) (Butyryl-[ξP][Nva(5-pentanoyl)][Aib]A[Gly(octyl)]L[Aib]L[βAla]-{NH((S)CH(Me)CH2NHC2H4OH)}), the IC50 turned out to be 27 nM in the assay on T47D, 20 nM in the assay with NCI-H460, 21 nM in the assay on MDA-MB-468 and 24 nM in the assay on SK-BR-3.

Turning to `CCCCC(=O)CCC[C@H](NC(=O)C1CCCN1C(=O)CCC)C(=O)NC(C)(C)C(=O)NC(C)(C)C(=O)N[C@@H](C)C(=O)N[C@@H](CC(C)C)C(=O)NC(C)(C)C(=O)N[C@@H](CC(C)C)C(=O)NCCC(=O)N[C@@H](C)CNCCO` (stereo partly drawn) (Butyryl-[ξP][Nva(5-pentanoyl)][Aib][Aib]AL[Aib]L[βAla]-{NH((S)CH(Me)CH2NHC2H4OH)}), the 50% inhibitory concentration (IC50) in the assay on T47D, in the assay on NCI-H460, in the assay with MDA-MB-468 and with SK-BR-3 was over 1000 nM in each case.

Turning to `CCCCCCCC[C@H](NC(=O)C(C)(C)NC(=O)C(C)(C)NC(=O)[C@H](CCCC(=O)CCCC)NC(=O)C1CCCN1C(=O)CCC)C(=O)N[C@@H](C)C(=O)NC(C)(C)C(=O)N[C@@H](CC(C)C)C(=O)NCCC(=O)N[C@@H](C)CNCCO` (stereo partly drawn) (Butyryl-[ξP][Nva(5-pentanoyl)][Aib][Aib][Gly(octyl)]A[Aib]L[βAla]-{NH((S)CH(Me)CH2NHC2H4OH)}), the IC50 with T47D worked out at 51 nM; in the assay on NCI-H460 it was 103 nM; in the assay on MDA-MB-468, 66 nM; in the assay with SK-BR-3, 130 nM.

Consider `CCCCCCCC[C@H](NC(=O)C(C)(C)NC(=O)C(C)(C)NC(=O)[C@H](CCCC(=O)CCCC)NC(=O)C1CCCN1C(=O)CCC)C(=O)N[C@@H](CC(C)C)C(=O)N[C@@H](C)C(=O)N[C@@H](C)C(=O)NCCC(=O)N[C@@H](C)CNCCO` (stereo partly drawn) (Butyryl-[ξP][Nva(5-pentanoyl)][Aib][Aib][Gly(octyl)]LAA[βAla]-{NH((S)CH(Me)CH2NHC2H4OH)}), for which the concentration for half-maximal inhibition (IC50) was 101 nM in the assay on T47D, 96 nM in the assay on NCI-H460, 314 nM in the assay with MDA-MB-468 and over 1000 nM in the assay on SK-BR-3.

For the compound `CCCCCCCC[C@H](NC(=O)C(C)(C)NC(=O)C(C)(C)NC(=O)[C@H](CCCC(=O)CCCC)NC(=O)C1CCCN1C(=O)CCC)C(=O)N[C@@H](CC(C)C)C(=O)N[C@@H](C)C(=O)N[C@@H](CC(C)C)C(=O)NCCC(=O)N[C@@H](C)CNCCO` (stereo partly drawn) (Butyryl-[ξP][Nva(5-pentanoyl)][Aib][Aib][Gly(octyl)]LAL[βAla]-{NH((S)CH(Me)CH2NHC2H4OH)}), the IC50 in the assay on T47D is over 1000 nM; with NCI-H460, 266 nM; in the assay on MDA-MB-468 it was over 1000 nM; in the assay on SK-BR-3, over 1000 nM.

Consider `CCCCCCCC[C@H](NC(=O)C(C)(C)NC(=O)C(C)(C)NC(=O)[C@H](CCCC(=O)CCCC)NC(=O)C1CCCN1C(=O)CCC)C(=O)N[C@@H](CC(C)C)C(=O)NC(C)(C)C(=O)N[C@@H](CC(C)C)C(=O)N[C@@H](C)C(=O)N[C@@H](C)CNCCO` (stereo partly drawn) (Butyryl-[ξP][Nva(5-pentanoyl)][Aib][Aib][Gly(octyl)]L[Aib]LA-{NH((S)CH(Me)CH2NHC2H4OH)}), for which the IC50 with T47D was 21 nM; with NCI-H460 it was 16 nM; in the assay with MDA-MB-468, 26 nM; in the assay with SK-BR-3, 36 nM.

In the case of `CCCCCCCC[C@H](NC(=O)C(C)(C)NC(=O)C(C)(C)NC(=O)[C@H](CCCC(=O)CCCC)NC(=O)C1CCCN1C(=O)CCC)C(=O)N[C@@H](CC(C)C)C(=O)NC(C)(C)C(=O)N[C@@H](CC(C)C)C(=O)NCCC(=O)N[C@@H](C)CN[C@@H](C)C(=O)O` (stereo partly drawn) (Butyryl-[ξP][Nva(5-pentanoyl)][Aib][Aib][Gly(octyl)]L[Aib]L[βAla]-X3), the IC50 is over 500 nM in the assay with T47D, 291 nM with NCI-H460, over 500 nM in the assay on MDA-MB-468 and over 1000 nM in the assay on SK-BR-3.

In the case of `CCCCCCCC[C@H](NC(=O)C(C)(C)NC(=O)C(C)(C)NC(=O)[C@H](CCCC(=O)CCCC)NC(=O)C1CCCN1C(=O)CCC)C(=O)N[C@@H](CC(C)C)C(=O)NC(C)(C)C(=O)N[C@@H](CC(C)C)C(=O)NCCC(=O)N[C@@H](C)CNCCO` (stereo partly drawn) (Butyryl-[ξP][Nva(5-pentanoyl)][Aib][Aib][Gly(octyl)]L[Aib]L[βAla]-{NH((S)CH(Me)CH2NHC2H4OH)}), the IC50 was 11 nM in the assay on T47D, 18 nM with NCI-H460, 20 nM in the assay with MDA-MB-468 and 47 nM with SK-BR-3.

In the case of `CCCCCCCC[C@H](NC(=O)C(C)(C)NC(=O)C(C)(C)NC(=O)[C@H](CCCC(=O)CCCC)NC(=O)[C@H](C)N)C(=O)N[C@@H](CC(C)C)C(=O)NC(C)(C)C(=O)N[C@@H](CC(C)C)C(=O)NCCC(=O)N[C@@H](C)CNCCO` (H-A[Nva(5-pentanoyl)][Aib][Aib][Gly(octyl)]L[Aib]L[βAla]-{NH((S)CH(Me)CH2NHC2H4OH)}), the IC50 is 6 nM in the assay on T47D, 5 nM in the assay on NCI-H460, 7 nM in the assay on MDA-MB-468 and 18 nM with SK-BR-3.
